Each structure is given as a SMILES string.

For the assay, the system named is p-ERK1/2 in NCI-H358 cells. In words: Inhibition of p-ERK1/2 in NCI-H358 cells (HTRF kit). Format: cell-based. To be noted: Homo sapiens, hEGF 5 nM stimulation, read-out: IC50 inhibiting p-ERK1/2 in NCI-H358 cells. An excerpt:
The following method was used to determine the inhibitory activity of the compounds of the present disclosure on p-ERK1/2 in NCI-H358 cells. In this method, Advanced phospho-ERK1/2 (Thr202/tyr204) kit (Cat. No. 64AERPEH) from Cisbio company was used, and the detailed experimental operation can be referred to the kit instruction. NCI-H358 cells (containing KRAS G12C mutation) were purchased from the Cell Resource Center, Shanghai Institutes for Biology Sciences, Chinese Academy of Sciences.
The experimental procedure is briefly described as follows: NCI-H358 cells were cultured in RPMIH 1640 complete medium containing 10% fetal bovine serum, 100 U penicillin, 100 μg/mL streptomycin and 1 mM sodium pyruvate. […] The 96-well plate was placed on ice for half an hour of lysis, and then the lysate was detected according to the instruction of the Advanced phospho-ERK1/2 (Thr202/tyr204) kit. Finally, the fluorescence intensity of each well at emission wavelengths of 620 nm and 665 nM was measured on a microplate reader in TF-FRET mode at an excitation wavelength of 304 nm, and the ratio of the fluorescence intensity of each well at 665/620 was calculated. The percentage of inhibition rate of the test compounds at each concentration was calculated by comparing with the fluorescence intensity of the control group (0.1% DMSO). […]

`C=CC(=O)N1C[C@@H]2C(=O)N(C)c3c(c4cc(Cl)c(-c5c(O)cccc5F)nc4n(-c4c(SC)ccnc4C(C)C)c3=O)N2C[C@H]1C` (single isomer, unassigned) [Compound 17]: the IC50 is 83.4 nM.

For the origin of these results see patent US20230295163A1, “TETRACYCLIC DERIVATIVE, METHOD FOR PREPARING SAME AND USE THEREOF IN MEDICINE” (ZHEJIANG HISUN PHARMACEUTICAL CO., LTD., priority 2020, published 2023).
